# Data: patent US5620997A, “Isothiazolones” (Warner-Lambert Company, priority 1995, dated 1997)
# Assays:
# [1] = test system: HIV; assay: CEM cell assay, anti-HIV activity (XTT, protection from viral cytopathic effects); assay type: cell-based; settings: Human immunodeficiency virus 1, CCRF-CEM; Effective concentration which protects cells from viral cytopathic effects
# Source text: The test systems utilized to establish the cellular antiviral activity of the isothiazolones of Formula I are well recognized in the art and are routinely employed for such purpose. For example, the assay utilized to evaluate the compounds activity against the HIV virus is that employed by the U.S. National Cancer Institute as described by Weislow O. S., et al., J. Natl. Cancer Inst., 1989;81:577-586, incorporated herein by reference.
# The procedure is designed to detect agents acting at any stage of the virus reproductive cycle. The assay basically involves the killing of T4 lymphocytes by HIV. Small amounts of HIV are added to cells, and at least two complete cycles of virus reproduction are necessary to obtain the required cell killing. Agents which interact with virions, cells, or virus gene-products to interfere with viral activities will protect cells from cytolysis. The system is automated in several features to accommodate large numbers of candidate agents, and is generally designed to detect anti-HIV activity. However, compounds which degenerate or are rapidly metabolized in the culture conditions may not show activity in this screen.
# Yet another test system employed to determine antiviral activity is called the CEM cell assay.
# T4 lymphocytes (CEM cell line) are exposed to HIV at a virus to cell ratio approximately 0.05, and plated along with noninfected control cells in 96-well microliter plates.
# Candidate agent is dissolved in dimethyl sulfoxide (unless otherwise noted), then diluted 1:200 in cell culture medium. Further dilutions (half-log10) are prepared before adding to an equal volume of medium containing either infected or noninfected cells.
# Cultures are incubated at 37° in a 5% carbon dioxide atmosphere for 6 or 7 days. The tetrazolium salt, XTT, is added to all wells, and cultures are incubated to allow formazan color development by viable cells J. National Cancer Institute, 1989;81:577-586. Individual wells are analyzed spectrophotometrically to quantitate formazan production, and in addition are viewed microscopically for detection of viable cells confirmation of protective activity.
# Drug-tested virus-infected cells are compared with drug-treated noninfected cells and with other appropriate controls (untreated infected and untreated noninfected cells, drug-contain wells without cells, etc.) on the same plate. Data are reviewed in comparison with other tests done at the same time and a determination about activity is made.
# [2] = CEM cell assay, toxicity (growth inhibition); assay type: cell-based; settings: human, cem cells; Toxic concentration which inhibits the growth of cells 50% relative to control; read-out: CEM Cell Assay TC50
# Method: T4 lymphocytes (CEM cell line) are exposed to HIV at a virus to cell ratio approximately 0.05, and plated along with noninfected control cells in 96-well microliter plates. Candidate agent is dissolved in dimethyl sulfoxide (unless otherwise noted), then diluted 1:200 in cell culture medium. Further dilutions (half-log10) are prepared before adding to an equal volume of medium containing either infected or noninfected cells. Cultures are incubated at 37° in a 5% carbon dioxide atmosphere for 6 or 7 days. The tetrazolium salt, XTT, is added to all wells, and cultures are incubated to allow formazan color development by viable cells J. National Cancer Institute, 1989;81:577-586. Individual wells are analyzed spectrophotometrically to quantitate formazan production, and in addition are viewed microscopically for detection of viable cells confirmation of protective activity. Drug-tested virus-infected cells are compared with drug-treated noninfected cells and with other appropriate controls (untreated infected and untreated noninfected cells, drug-contain wells without cells, etc.) on the same plate. Data are reviewed in comparison with other tests done at the same time and a determination about activity is made.
compound,measurement,setting,value
"NS(=O)(=O)c1ccc(-n2sc3ccccc3c2=O)cc1 [Example 1, 4-(3-Oxo-3h-benzo[d]isothiazol-2-yl)-benzenesulfonamide]",EC50,[1],5.1 µM
same,CC50,[2],21 µM
